Values of other authors, collected in patent US20140271893A1 (McNeil-PPC, Inc., priority 2013, published 2014).

Tests used:
[1] = therapeutic dose
[2] = 30 mg dose administered orally over eight hours

Row | Structure (SMILES) | fraction of dose excreted unchanged in the urine [1] | metabolized to m-hydroxy-phenylglycol-sulfate, % of the dose [2] | metabolized to m-hydroxymandelic acid, % of the dose [2] | metabolized to phenylephrine-glucuronide, % of the dose [2] | metabolized to phenylephrine-sulfate, % of the dose [2]
1 | CC(=O)Nc1ccc(O)cc1 [acetaminophen] | Less than 9% | – | – | – | –
2 | CNC[C@H](O)c1cccc(O)c1 [phenylephrine, (R)-1-(3-hydroxyphenyl)-2-methylaminoethanol] | – | 6% | 30% | 12% | 47%
